{"source": "patent US20210238169A1", "about": "“PROCESS FOR PREPARING A COMPOUND OF FORMULA (XIII)” (PULMOCIDE LIMITED, priority 2014, published 2021)", "key": {"[1]": {"test_system": "Aspergillus fumigatus (ATCC 13073)", "assay": "Macrophage and neutrophil accumulation into BALF of Aspergillus fumigatus infected mice", "format": "in vivo", "method": "(§1) Aspergillus fumigatus (ATCC 13073 [strain: NIH 5233], American Type Culture Collection, Manassas, Va., USA) was grown on Malt agar (Nissui Pharmaceutical, Tokyo, Japan) plates for 6-7 days at RT (24±1° C.). Spores were aseptically dislodged from the agar plates and suspended in sterile distilled water with 0.05% Tween 80 and 0.1% agar. On the day of infection, spore counts were assessed by haemocytometer and the inoculum was adjusted to obtain a concentration of 1.67×10^8 spores mL^−1 of physiological saline.\n(§2) On day 0, animals were infected with the spore suspension (35 μL intra-nasally).\n(§3) Test compounds were administered intra-nasally ([…]) once daily, 30 min before infection on day 0 and then on days 1, 2 and 3 (representing prophylactic treatment) or on days 1, 2 and 3 only (representing therapeutic treatment). For extended prophylactic treatment, test compounds (35 μL of a suspension of 0.0032 or 0.016 mg/mL in physiological saline) were administered intra-nasally once daily for seven days; then 30 min before infection on day 0, and thereafter, either on days 1, 2 and 3 after infection, or on day 0 only. The effects of these treatment paradigms were compared with those obtained when treatment was restricted to one day and 30 min before inoculation and then on days 1, 2 and 3 post infection; or reduced still further to one day and 30 min before infection only.\n(§4) Six hours after the last dose, animals were anesthetised, the trachea was cannulated and BALF was collected. The total number of alveolar cells was determined using a haemocytometer, and the numbers of alveolar macrophages and neutrophils were determined by FACS analysis (EPICS® ALTRA II, Beckman Coulter, Inc., Fullerton, Calif., USA) using anti-mouse MOMA2-FITC (macrophage) or anti-mouse 7/4 (neutrophil), respectively, as previously reported (Kimura et al., 2013). The levels of IFN-γ and IL-17 in BALF, and IL-6 and TNFα in serum were determined using Quantikine® mouse IFN-γ, IL-17, IL-6 or TNF-α ELISA kit (R&D systems, Inc., Minneapolis, Minn., USA) respectively. MDA, an oxidative stress marker, was assayed using OxiSelect® TBARS Assay Kits (MDA Quantitation; Cell Biolabs Inc, San Diego, Calif., USA). Aspergillus GM in serum was determination using Platelia GM-EIA kits (Bio-Rad Laboratories, Redmond, Wash., USA). Cut-off index was calculated by the formula: Cut-off index=OD in sample/OD in cut-off control provided in kit. For tissue fungal load assays, 100 mg of lung tissue was removed aseptically and homogenized in 0.2 mL of 0.1% agar in sterile distilled water. Serially diluted lung homogenates were plated on Malt agar plates (50 μL/plate), and incubated at 24±1° C. for 72 to 96 h. The colonies of A. fumigatus on each plate was counted and the fungal titre presented as CFU per gram of lung tissue."}, "[2]": {"test_system": "Aspergillus fumigatus (ATCC 13073)", "assay": "IL-6 and TNFα levels in serum of Aspergillus fumigatus infected mice", "format": "in vivo", "method": "as §1, §2, §3, §4"}, "[3]": {"conditions": "Prophylactic Treatment, 0.08 mg/mL intra-nasally"}, "[4]": {"conditions": "Prophylactic Treatment, 0.4 mg/mL intra-nasally"}, "[5]": {"conditions": "Prophylactic Treatment, 2 mg/mL intra-nasally"}, "[6]": {"conditions": "Therapeutic Treatment, 0.4 mg/mL intra-nasally"}, "[7]": {"conditions": "Therapeutic Treatment, 2 mg/mL intra-nasally"}, "[8]": {"conditions": "Therapeutic Treatment, 10 mg/mL intra-nasally"}}, "data": [{"smiles": "Cc1cc(N2CCN(c3ccc(C(=O)Nc4ccc(F)cc4)cc3)CC2)ccc1OC[C@@H]1CO[C@@](Cn2cncn2)(c2ccc(F)cc2F)C1", "note": "[Compound (I), 4-(4-(4-(((3R,5R)-5-((1H-1,2,4-triazol-1-yl)methyl)-5-(2,4-difluorophenyl)tetrahydrofuran-3-yl)methoxy)-3-methylphenyl)piperazin-1-yl)-N-(4-fluorophenyl)benzamide]", "values": [{"measurement": "Macrophage cell numbers in BAL", "setting": "[1]; [3]", "value": "0.40 ± 0.15 × 10^5/mL"}, {"measurement": "Macrophage cell numbers in BAL, % inhibition", "setting": "[1]; [3]", "value": 38, "unit": "%"}, {"measurement": "Neutrophil cell numbers in BAL", "setting": "[1]; [3]", "value": "0.37 ± 0.04 × 10^5/mL"}, {"measurement": "Neutrophil cell numbers in BAL, % inhibition", "setting": "[1]; [3]", "value": 24, "unit": "%"}, {"measurement": "Macrophage cell numbers in BAL", "setting": "[1]; [4]", "value": "0.32 ± 0.07 × 10^5/mL"}, {"measurement": "Macrophage cell numbers in BAL, % inhibition", "setting": "[1]; [4]", "value": 51, "unit": "%"}, {"measurement": "Neutrophil cell numbers in BAL", "setting": "[1]; [4]", "value": "0.26 ± 0.12 × 10^5/mL"}, {"measurement": "Neutrophil cell numbers in BAL, % inhibition", "setting": "[1]; [4]", "value": 47, "unit": "%"}, {"measurement": "Macrophage cell numbers in BAL", "setting": "[1]; [5]", "value": "0.26 ± 0.05 × 10^5/mL"}, {"measurement": "Macrophage cell numbers in BAL, % inhibition", "setting": "[1]; [5]", "value": 60, "unit": "%"}, {"measurement": "Neutrophil cell numbers in BAL", "setting": "[1]; [5]", "value": "0.22 ± 0.04 × 10^5/mL"}, {"measurement": "Neutrophil cell numbers in BAL, % inhibition", "setting": "[1]; [5]", "value": 55, "unit": "%"}, {"measurement": "Macrophage cell numbers in BAL", "setting": "[1]; [6]", "value": "0.43 ± 0.05 × 10^5/mL"}, {"measurement": "Macrophage cell numbers in BAL, % inhibition", "setting": "[1]; [6]", "value": 34, "unit": "%"}, {"measurement": "Neutrophil cell numbers in BAL", "setting": "[1]; [6]", "value": "0.38 ± 0.04 × 10^5/mL"}, {"measurement": "Neutrophil cell numbers in BAL, % inhibition", "setting": "[1]; [6]", "value": 22, "unit": "%"}, {"measurement": "Macrophage cell numbers in BAL", "setting": "[1]; [7]", "value": "0.40 ± 0.11 × 10^5/mL"}, {"measurement": "Macrophage cell numbers in BAL, % inhibition", "setting": "[1]; [7]", "value": 38, "unit": "%"}, {"measurement": "Neutrophil cell numbers in BAL", "setting": "[1]; [7]", "value": "0.34 ± 0.05 × 10^5/mL"}, {"measurement": "Neutrophil cell numbers in BAL, % inhibition", "setting": "[1]; [7]", "value": 31, "unit": "%"}, {"measurement": "Macrophage cell numbers in BAL", "setting": "[1]; [8]", "value": "0.32 ± 0.07 × 10^5/mL"}, {"measurement": "Macrophage cell numbers in BAL, % inhibition", "setting": "[1]; [8]", "value": 51, "unit": "%"}, {"measurement": "Neutrophil cell numbers in BAL", "setting": "[1]; [8]", "value": "0.27 ± 0.08 × 10^5/mL"}, {"measurement": "Neutrophil cell numbers in BAL, % inhibition", "setting": "[1]; [8]", "value": 45, "unit": "%"}, {"measurement": "IL-6 concentration in serum", "setting": "[2]; [3]", "value": "159 ± 73.3", "unit": "pg/mL"}, {"measurement": "IL-6 in serum, % Inhibition", "setting": "[2]; [3]", "value": 44, "unit": "%"}, {"measurement": "TNFα concentration in serum", "setting": "[2]; [3]", "value": "11.8 ± 5.9", "unit": "pg/mL"}, {"measurement": "TNFα in serum, % Inhibition", "setting": "[2]; [3]", "value": 54, "unit": "%"}, {"measurement": "IL-6 concentration in serum", "setting": "[2]; [4]", "value": "86.3 ± 46.9", "unit": "pg/mL"}, {"measurement": "IL-6 in serum, % Inhibition", "setting": "[2]; [4]", "value": 70, "unit": "%"}, {"measurement": "TNFα concentration in serum", "setting": "[2]; [4]", "value": "7.3 ± 3.5", "unit": "pg/mL"}, {"measurement": "TNFα in serum, % Inhibition", "setting": "[2]; [4]", "value": 71, "unit": "%"}, {"measurement": "IL-6 concentration in serum", "setting": "[2]; [5]", "value": "44.5 ± 12.2", "unit": "pg/mL"}, {"measurement": "IL-6 in serum, % Inhibition", "setting": "[2]; [5]", "value": 84, "unit": "%"}, {"measurement": "TNFα concentration in serum", "setting": "[2]; [5]", "value": "4.7 ± 0.4", "unit": "pg/mL"}, {"measurement": "TNFα in serum, % Inhibition", "setting": "[2]; [5]", "value": 82, "unit": "%"}, {"measurement": "IL-6 concentration in serum", "setting": "[2]; [6]", "value": "51.7 ± 16.8", "unit": "pg/mL"}, {"measurement": "IL-6 in serum, % Inhibition", "setting": "[2]; [6]", "value": 82, "unit": "%"}, {"measurement": "TNFα concentration in serum", "setting": "[2]; [6]", "value": "6.2 ± 0.5", "unit": "pg/mL"}, {"measurement": "TNFα in serum, % Inhibition", "setting": "[2]; [6]", "value": 76, "unit": "%"}, {"measurement": "IL-6 concentration in serum", "setting": "[2]; [7]", "value": "44.2 ± 11.4", "unit": "pg/mL"}, {"measurement": "IL-6 in serum, % Inhibition", "setting": "[2]; [7]", "value": 84, "unit": "%"}, {"measurement": "TNFα concentration in serum", "setting": "[2]; [7]", "value": "5.5 ± 0.7", "unit": "pg/mL"}, {"measurement": "TNFα in serum, % Inhibition", "setting": "[2]; [7]", "value": 79, "unit": "%"}, {"measurement": "IL-6 concentration in serum", "setting": "[2]; [8]", "value": "35.9 ± 10.4", "unit": "pg/mL"}, {"measurement": "IL-6 in serum, % Inhibition", "setting": "[2]; [8]", "value": 87, "unit": "%"}, {"measurement": "TNFα concentration in serum", "setting": "[2]; [8]", "value": "4.9 ± 0.6", "unit": "pg/mL"}, {"measurement": "TNFα in serum, % Inhibition", "setting": "[2]; [8]", "value": 81, "unit": "%"}]}]}
